Reference: US4123552A, “Compositions for preserving crops and animal feedstuffs” (Chevron Research Company, priority 1975, dated 1978)

How the values were obtained:
high moisture corn = assay: Preservation of high moisture corn in ventilated cans (time until temperature exceeds room temperature); details: corn 25 percent moisture, 70-72 F
Experimental: High moisture corn (25 percent moisture) was treated with various methylene and polyoxymethylene esters of propionic or acetic acid of various dosages. The esters were applied to the corn in a mixer for one minute at 32 RPM. Three replicate two gallon ventilated cans were filled with the treated corn. The cans were then held at a temperature of 70°-72° F. Temperature readings were taken semi-weekly by means of thermocouples in the center of each can. When the temperature exceeded constant room temperature for at least an 8-hour period the treatment was considered broken.

All Species = assay: Control of seed- and soil-borne pathogens during storage of corn seeds (Table IV), all species; format: cell-based, Rhizopus, Penicillium, Fusarium; details: relative to untreated check
Experimental: A variety of bis-esters was tested for the control of seed- and soil-borne pathogens during storage of corn seeds (Zea mays) by the following procedure.
(§1) A small amount of acetone was added to the bis-ester to make specific volume, plus a small portion of emulsifier making it into a slurry. This preparation was diluted with water to the desired concentration. Solution was then evenly distributed on the wall of a glass jar. High moisture feedcorn with natural infection was stored frozen after harvest until used for this test. The corn seeds were rolled in the jar until they were coated and the solution was completely absorbed on them.
(§2) Following the treatment, the corn seeds were plated on Potato Dextrose Agar plates. For comparison, untreated corn seeds were also plated. Propionic acid was also tested for comparison.
The percentage control of all species was based on the total sum average of mycelial growth in millimeters of all species in the treated seeds relative to the untreated check. The fast growing Rhizopus was evaluated 7 days after treatment, the other fungi after 14 days.

Rhizopus sp. = assay: Concentration for 90% control of pathogen on corn seeds (Table V), Rhizopus sp.; format: cell-based; details: 5 days after treatment
Experimental: as §1, §2
(§3) A variety of bis-esters was tested for the control of seed- and soil-borne pathogens during the storage of corn seeds (Zea mays) by the procedure of Example 11. For comparison, propionic acid was also tested.
(§4) Control of each pathogen was determined by mycelial growth in millimeters in the treated seeds relative to untreated seeds. Mycelial growth of Rhizopus species and Fusarium species was evaluated 5 days after treatment. Mycelial growth in Aspergillus niger was evaluated 14 days after treatment.
(§5) The bis-ester tested and the concentration of active ingredient in ounces per 100 lbs. of corn seeds for 90 percent control of each pathogen species are tabulated in Table V.

Fusarium sp. = assay: Concentration for 90% control of pathogen on corn seeds (Table V), Fusarium sp.; format: cell-based; details: 5 days after treatment
Experimental: as §1, §2, §3, §4, §5

Aspergillus niger = assay: Concentration for 90% control of pathogen on corn seeds (Table V), Aspergillus niger; format: cell-based; details: corn seeds; 14 days after treatment
Experimental: as §1, §2, §3, §4, §5

[1] = Solubility of insecticides in methylene bispropionate; format: physicochemical; details: solvent methylene bispropionate
Experimental: Methylene bispropionate was tested as a solvent for various insecticides. […] O,S-dimethylN-acetyl phosphoramidothioate was soluble in methylene bispropionate to the extent of 5 percent by weight. Chlordane was soluble in methylene bispropionate to the extent of at least 75 percent by weight.

SMILES	Weeks Effective (high moisture corn; 2 Oz/Bu)	Weeks Effective (high moisture corn; 3 Oz/Bu)	Weeks Effective (high moisture corn; 4 Oz/Bu)	Weeks Effective (high moisture corn; 6 Oz/Bu)	% Control All Species (All Species; 1.0 Oz./100 Lbs.)	% Control All Species (All Species; 2.5 Oz./100 Lbs.)	% Control All Species (All Species; 6.4 Oz./100 Lbs.)	% Control All Species (All Species; 16 Oz./100 Lbs.)	Conc. for 90% Control, Rhizopus sp. (Rhizopus sp.)	Conc. for 90% Control, Fusarium sp. (Fusarium sp.)	Conc. for 90% Control, Aspergillus niger (Aspergillus niger)	miscibility with methylene bispropionate (in words) [1]	solubility in methylene bispropionate [1]
CCC(=O)O [Propionic acid, reference compound]	6 Weeks	6 Weeks	> 12 Weeks	> 12 Weeks	28%	60%	99%	99%	3.8 oz./100 lbs.	9.6 oz./100 lbs.	3.4 oz./100 lbs.	–	–
CCOC(=O)CC(SP(=S)(OC)OC)C(=O)OCC (stereo not drawn) [Malathion, S-[1,2-bis(ethoxycarbonyl)ethyl]-O,O-dimethyl phosphorodithioate]	–	–	–	–	–	–	–	–	–	–	–	miscible with methylene bispropionate in all proportions	–
CCC(=O)OC(OC(=O)CC)c1ccccc1 [Benzylidene Bispropionate]	–	–	–	–	46%	54%	79%	91%	–	–	–	–	–
CC(C)C(=O)OCOC(=O)C(C)C [Methylene Bisisobutyrate]	–	–	–	–	98%	99%	100%	98%	3.2 oz./100 lbs.	2.0 oz./100 lbs.	* (No Control at 2.5 oz./100 lbs.)	–	–
CCC(=O)OC(C)OC(=O)CC [Ethylidene Bispropionate]	–	–	–	–	44%	50%	83%	91%	–	–	–	–	–
COP(=O)(NC(C)=O)SC (stereo not shown) [O,S-dimethylN-acetyl phosphoramidothioate]	–	–	–	–	–	–	–	–	–	–	–	–	5 percent by weight
CC(=O)OCOCOC(C)=O [Oxybismethylene Acetate, Oxybismethylene Bisacetate]	–	5 Weeks	–	> 12 Weeks	–	–	–	–	–	–	–	–	–
CC(C)C(=O)OCOCOC(=O)C(C)C [Oxybismethylene Bisisobutyrate]	–	–	–	–	73%	87%	100%	100%	1.2 oz./100 lbs.	0.88 oz./100 lbs.	0.88 oz./100 lbs.	–	–
